Like-named read-outs stand apart in the source and are kept apart here.
Assays:
rLen c 3 [1] = biological target: T1, rLen c 3 (Lens culinaris, UniProt A0AT29); set-up: method as in PMID 28266846; details: among saturated FAs; cited from earlier work
T1 construct: with the formation of the large fragment 1–80 and the protein without C-terminal Phe93; His8-TrxL (octahistidine-thioredoxin carrier) (N, cleaved yes); made in house; host or cells: Escherichia coli BL-21 (DE3)
T1 sequence (A0AT29 26-118): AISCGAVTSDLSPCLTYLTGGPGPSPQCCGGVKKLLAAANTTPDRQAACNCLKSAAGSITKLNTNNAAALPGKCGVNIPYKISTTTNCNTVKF

rLen c 3 [2] = biological target: T1, rLen c 3; experiment: TNS displacement lipid binding assay; set-up: species or system lentil; details: for IC50: 25 °C, 4 μM TNS, 4 μM rLen c 3; for Change of rLen c 3 affinity for the ligand at acidic pH: pH 2.5 compared with pH 7.4
Description: The ability of rLen c 3 to bind lipids was assayed by monitoring the displacement of the fluorescent probe TNS. Fluorescence intensity was measured at 25 °C with a F-2710 spectrofluorimeter (Hitachi, Tokyo, Japan), using a […] slit width for both excitation (λ = 320 nm) and emission (λ = 437 nm) and the measurement taken for no longer than 1.5–2 s. After equilibrating TNS (4 μM) in 10 mM phosphate buffer, pH 7.4, or 150 mM sodium chloride, pH 2.5, for 2 min with gentle mixing, the 2 mM of competing ligand was titrated into the 2 mL of 4 μM rLen c 3 solution in 1 μL aliquots. The resulting data were fitted by using a sigmoidal curve-fitting in GraphPad Prism from which the concentration able to displace 50% of the TNS (IC50) was calculated. The dependence of the ligand binding on temperature was performed at 20, 40, 60, 90, and 20 °C, after cooling down as previously described. Temperature was checked with a temperature probe in the cuvette. Each experiment was performed in triplicate, independently.

rLen c 3 [3] = biological target: T1, rLen c 3; experiment: Effect of lipid ligands on secondary structure and thermostability of rLen c 3 (CD spectroscopy); assay type: physicochemical, lentil; details: for Effect of ligand on rLen c 3 thermostability (resistance to thermal denaturation): heating up to 98.5 °C; for Effect of ligand on rLen c 3 thermostability (resistance to thermal denaturation) / Recovery of rLen c 3 structure after cooling down in the presence of ligand: pH 7.4, ligand 1 mM; for Recovery of rLen c 3 structure after cooling down in the presence of ligand: cooling down to 20 °C after 98.5 °C
Description: Circular dichroism spectra were recorded at different temperatures, using a J-810 spectropolarimeter (Jasco, Hachioji, Tokyo, Japan) in a 0.1 cm path length quartz cell (Hellma GmbH & Co. KG, Mullheim, Germany) in the 190–250 nm range, and 0.2, using solutions of rLen c 3 in 10 mM phosphate buffer, pH 7.4, or 150 mM sodium chloride, pH 2.5, simulated gastric fluid, at a concentration of 17 µM. Fatty acids or lysolipids were added at a final concentration of 1 mM. Each experiment was performed twice, independently.

rLen c 3 [4] = biological target: T1, rLen c 3; experiment: Effect of lipid ligands on gastrointestinal digestion of rLen c 3; assay type: in vitro ADME, lentil; details: for Effect of ligand on rLen c 3 degradation rate (proteolytic digestion): gastric then duodenal digestion
Description: (§1) Simulation of gastrointestinal digestion in vitro was performed as described in [15]. Briefly, gastric digestion was performed for 2 h, using 50 ng of pepsin (p) (Sigma) per 1 μg of rLen c 3 in 0.1 M HCl, pH 2.0 (final protein concentration 0.05 mM). For duodenal digestion, pH of the mixture resulting from gastric digestion was adjusted to 8.0 by addition of ammonium bicarbonate. The obtained mixture was incubated for 24 h at 37 °C with 2.5 ng of trypsin (t) (Promega, Madison, WI, USA) and 10 ng of α-chymotrypsin (ch) (Sigma) per 1 μg of the substrate. Degree of proteolysis was monitored by sodium dodecyl sulfate polyacrylamide gel electrophoresis (SDS-PAGE) under reducing conditions and reversed-phase high-performance liquid chromatography (RP-HPLC) on Luna C18 column (5 μm, 250 × 4.6 mm; Phenomenex, Torrance, CA, USA) at a flow rate of 0.5 mL/min, using a gradient of acetonitrile concentration from 5 to 65% for 45 min in 0.1% trifluoroacetic acid (TFA). Gel analysis was performed, using a densitometer. Electroblotting and subsequent N-terminal protein sequencing were performed as described. The protein was preheated at 100 °C for 30 min to study the effect of temperature on allergen stability. rLen c 3 was preloaded with various lipid ligands (LTP to lipid molar ratio 1:4) for 10 min, in order to investigate their effects on allergen resistance to proteolytic digest. As a control of the influence of lipid ligands on the work of proteolytic enzymes, the same reactions were carried out, using bovine α-casein (Sigma) as a substrate. Some independent experiments were performed in each case.

pepsin = experiment: In vitro gastric digestion (SDS-PAGE); assay type: in vitro ADME; details: first 5 min; control substrate
Description: as §1, with “As a control of the influence of lipid ligands on the work of proteolytic enzymes, the same reactions were carried out, using bovine α-casein (Sigma) as a substrate. Some independent experiments were performed in each case.” left out

[5] = 10 mM phosphate buffer, pH 7.4, read-out: IC50 (TNS displacement)
[6] = 150 mM sodium chloride, pH 2.5, read-out: IC50 (TNS displacement)

Molecule: CCCCCCCCCCCCCCCCCCCC(=O)O [ARA, arachidic C20:0]
- Binding capacity / affinity of Len c 3 for saturated fatty acids (rLen c 3 [1]): lower affinity

Molecule: CCCCCCCCCCCCCCCCCCCCCC(=O)O [BEH, behenic (docosanoic) acid]
- IC50 (rLen c 3 [2]; [5]): 5.9 ± 0.2 µM
- IC50 (rLen c 3 [2]; [6]): 6.2 ± 0.1 µM
- Binding capacity / affinity of Len c 3 for saturated fatty acids (rLen c 3 [1]): lower affinity
- Effect of ligand on rLen c 3 thermostability (resistance to thermal denaturation) (rLen c 3 [3]): slight protective effect
- Effect of ligand on rLen c 3 degradation rate (proteolytic digestion) (rLen c 3 [4]; LTP to lipid molar ratio 1:4): slightly accelerated the allergen proteolysis

Molecule: CCCCCCCCCCCC(=O)O [LAU, lauric acid]
- IC50 (rLen c 3 [2]; [5]): 2.1 ± 0.2 µM
- IC50 (rLen c 3 [2]; [6]): 2.1 ± 0.01 µM
- Change of rLen c 3 affinity for the ligand at acidic pH (rLen c 3 [2]): remained unchanged
- Binding capacity / affinity of Len c 3 for saturated fatty acids (rLen c 3 [1]): highest binding capacities
- Effect of ligand on rLen c 3 thermostability (resistance to thermal denaturation) (rLen c 3 [3]): slight protective effect
- Effect of ligand on rLen c 3 degradation rate (proteolytic digestion) (rLen c 3 [4]; LTP to lipid molar ratio 1:4): quickly digested by trypsin/chymotrypsin

Molecule: CCCCCCCCCCCCCCCC(=O)OC[C@@H](O)COP(=O)([O-])OCC[N+](C)(C)C [LPPC, lyso-palmitoyl phosphatidylcholine]
- IC50 (rLen c 3 [2]; [5]): 7.7 ± 0.02 µM
- IC50 (rLen c 3 [2]; [6]): 7.3 ± 0.01 µM
- Change of rLen c 3 affinity for the ligand at acidic pH (rLen c 3 [2]): slightly increased
- Ability of rLen c 3 to bind the ligand after heating and cooling down (rLen c 3 [2]; pH 7.4, heated from 20 to 90 °C, then cooled down to 20 °C): not restored
- Recovery of rLen c 3 structure after cooling down in the presence of ligand (rLen c 3 [3]): recovery of the protein structure was not observed
- Effect of ligand on rLen c 3 thermostability (resistance to thermal denaturation) (rLen c 3 [3]): a complete denaturation of the protein did not occur even at 98.5 °C
- Effect of ligand on secondary structure of rLen c 3 (rLen c 3 [3]; pH 7.4, 20 °C, ligand 1 mM): increased the percentage of α-helices
- Effect of protein preheating before digestion in the presence of ligand on rate of allergen degradation (rLen c 3 [4]; after 4 and 24 h, effect more pronounced with LPPC): slightly increased
- Effect of ligand on rLen c 3 degradation rate (proteolytic digestion) (rLen c 3 [4]; LTP to lipid molar ratio 1:4): to a lesser extent, LPPC slowed down the allergen degradation

Molecule: CCCCCCCC/C=C\CCCCCCCC(=O)O [OLE, oleic acid]
- IC50 (rLen c 3 [2]; [5]): 2.4 ± 0.1 µM
- IC50 (rLen c 3 [2]; [6]): 2.6 ± 0.1 µM
- Change of rLen c 3 affinity for the ligand at acidic pH (rLen c 3 [2]): decreased
- Recovery of rLen c 3 structure after cooling down in the presence of ligand (rLen c 3 [3]): partial protein renaturation
- Effect of ligand on rLen c 3 thermostability (resistance to thermal denaturation) (rLen c 3 [3]): increased the rLen c 3 thermostability
- Degradation of rLen c 3 in the presence of ligand (rLen c 3 [4]; 24 h of duodenal digestion, LTP to lipid molar ratio 1:4): ~ 55%
- Effect of ligand on rLen c 3 degradation rate (proteolytic digestion) (rLen c 3 [4]; LTP to lipid molar ratio 1:4): more pronounced

Molecule: CCCCCCCCCCCCCCCCCC(=O)O [STE, stearic acid]
- IC50 (rLen c 3 [2]; IC50 (TNS displacement), 10 mM phosphate buffer, pH 7.4): 4.5 ± 0.1 µM
- IC50 (rLen c 3 [2]; IC50 (TNS displacement), 150 mM sodium chloride, pH 2.5): 5.1 ± 0.1 µM
- Change of rLen c 3 affinity for the ligand at acidic pH (rLen c 3 [2]): decreased
- Recovery of rLen c 3 structure after cooling down in the presence of ligand (rLen c 3 [3]): partial protein renaturation
- Effect of ligand on rLen c 3 thermostability (resistance to thermal denaturation) (rLen c 3 [3]): increased the rLen c 3 thermostability
- Effect of ligand on rLen c 3 degradation rate (proteolytic digestion) (rLen c 3 [4]; LTP to lipid molar ratio 1:4): slowed down the allergen degradation

B1: bovine α-casein: bovine α-casein (Sigma), control substrate for proteolytic digestion (protein, UniProt P02662 16-214; P02663 16-222, looked up)
Alpha-S1-casein: RPKHPIKHQGLPQEVLNENLLRFFVAPFPEVFGKEKVNELSKDIGSESTEDQAMEDIKQMEAESISSSEEIVPNSVEQKHIQKEDVPSERYLGYLEQLLRLKKYKVPQLEIVPNSAEERLHSMKEGIHAQQKEPMIGVNQELAYFYPELFRQFYQLDAYPSGAWYYVPLGTQYTDAPSFSDIPNPIGSENSEKTTMPLW
Alpha-S2-casein: KNTMEHVSSSEESIISQETYKQEKNMAINPSKENLCSTFCKEVVRNANEEEYSIGSSSEESAEVATEEVKITVDDKHYQKALNEINQFYQKFPQYLQYLYQGPIVLNPWDQVKRNAVPITPTLNREQLSTSEENSKKTVDMESTEVFTKKTKLTEEEKNRLNFLKKISQRYQKFALPQYLKTVYQHQKAMKPWIQPKTKVIPYVRYL
- Degradation by pepsin (pepsin): almost completely degraded
